Laboratory results published in patent US10294234B2, “HIV inhibitor compounds” (priority 2017, dated 2019).
Where two headings read alike, the source gives them in different places.

Experiments:
[1] = test system: HIV-1 (IIIB) in MT-4 cells; experiment: MT-4 HIV assay; type: cell-based; conditions: Human immunodeficiency virus 1, MT4, 120 h; HIV-1 (IIIB), MT-4 cells, 5 days, Cell Titer Glo; read-out: EC50
In short: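 Antiviral activity was read by Cell Titer Glo after a 5-day, 37 °C culture of MT-4 cells pre-infected with a 1:250 dilution of HIV-1 (IIIB). Compounds were tested as threefold dilution series in complete RPMI. Controls were no drug, mock infection and 5 uM AZT.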

[2] = In short: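 LC/MS/MS read-out of parent compound remaining; in vitro t1/2 converted to Clint. Incubation: 1 uM compound, 0.5 mg/mL dog/rat/human liver microsomes, NADPH-regenerating system, duplicate sets, time-points 2–65 minutes.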
[3] = human liver microsomes 0.5 mg/mL, 1 uM compound, NADPH
[4] = rat liver microsomes 0.5 mg/mL, 1 uM compound, NADPH

SMILES | EC50 [1] [nM] | Human Pred Cl. ([2]; human, microsomes) [L/H/kg] | Rat. Pred. Cl. ([2]; rat, microsomes) [L/H/kg] | Human Pred Cl. [2, 3] [L/H/kg] | Rat. Pred. Cl. [2, 4] [L/H/kg] | Dog. Pred. Cl. ([2]; dog, microsomes) [L/H/kg]
COC(=O)N[C@H](C(=O)N[C@@H](Cc1ccc(C#Cc2ccc(N3CC4CCC(C3)N4C3COC3)nc2)cc1)[C@@H](O)CN(Cc1c(F)cc(-c2ccc(C(F)F)cn2)cc1F)NC(=O)[C@@H](NC(=O)OC)C(C)(C)C(F)(F)F)C(C)(C)C(F)(F)F [Example 99, Methyl ((5S,8S,9S,14S)-11-(4-(5-(difluoromethyl)pyridin-2-yl)-2,6-difluorobenzyl)-16,16,16-trifluoro-9-hydroxy-15,15-dimethyl-8-(4-((6-(8-(oxetan-3-yl)-3,8-diazabicyclo [3.2.1]octan-3-yl)pyridin-3-yl)ethynyl)benzyl)-3,6,13-trioxo-5-(1,1,1-trifluoro-2-methylpropan-2-yl)-2-oxa-4,7,11,12-tetraazahexadecan-14-yl)carbamate] | 7.96 | <0.11 | 0.26 | – | – | –
COC(=O)N[C@H](C(=O)N[C@@H](Cc1ccc(C#Cc2ccc(N3CC4CCC(C3)N4C3COC3)nc2)cc1)[C@@H](O)CN(Cc1c(F)cc(-c2ccc(F)cn2)cc1F)NC(=O)[C@@H](NC(=O)OC)C(C)(C)C(F)(F)F)C(C)(C)C(F)(F)F [Example 102, Methyl ((5S,8S,9S,14S)-11-(2,6-difluoro-4-(5-fluoropyridin-2-yl)benzyl)-16,16,16-trifluoro-9-hydroxy-15,15-dimethyl-8-(4-((6-(8-(oxetan-3-yl)-3,8-diazabicyclo [3.2.1]octan-3-yl)pyridin-3-yl)ethynyl)benzyl)-3,6,13-trioxo-5-(1,1,1-trifluoro-2-methylpropan-2-yl)-2-oxa-4,7,11,12-tetraazahexadecan-14-yl)carbamate] | 5.68 | 0.18 | <0.18 | – | – | –
COC(=O)N[C@H](C(=O)N[C@@H](Cc1ccc(C#Cc2cnc(N3CCN(C4COC4)CC3)nc2)cc1)[C@@H](O)CN(Cc1c(F)cc(-c2cnn(C(F)F)c2)cc1F)NC(=O)[C@@H](NC(=O)OC)C(C)(C)C(F)(F)F)C(C)(C)C(F)(F)F [Example 103, Methyl ((5S,8S,9S,14S)-11-(4-(1-(difluoromethyl)-1H-pyrazol-4-yl)-2,6-difluorobenzyl)-16,16,16-trifluoro-9-hydroxy-15,15-dimethyl-8-(4-((2-(4-(oxetan-3-yl)piperazin-1-yl)pyrimidin-5-yl)ethynyl)benzyl)-3,6,13-trioxo-5-(1,1,1-trifluoro-2-methylpropan-2-yl)-2-oxa-4,7,11,12-tetraazahexadecan-14-yl)carbamate] | 4.84 | – | – | 0.16 | 0.32 | –
COC(=O)N[C@H](C(=O)NN(Cc1c(F)cc(-c2ccc(F)cn2)cc1F)C[C@H](O)[C@H](Cc1ccc(C#Cc2ccc(N3CC4CCC(C3)N4C3COC3)nc2)cc1)NC(=O)[C@@H](NC(=O)OC)C(C)(C)C(F)(F)F)C(C)(C)C [Example 105, Methyl ((5S,8S,9S,14S)-11-(2,6-difluoro-4-(5-fluoropyridin-2-yl)benzyl)-9-hydroxy-15,15-dimethyl-8-(4-((6-(8-(oxetan-3-yl)-3,8-diazabicyclo [3.2.1]octan-3-yl)pyridin-3-yl)ethynyl)benzyl)-3,6,13-trioxo-5-(1,1,1-trifluoro-2-methylpropan-2-yl)-2-oxa-4,7,11,12-tetraazahexadecan-14-yl)carbamate] | 3.16 | 0.39 | – | – | – | –
COC(=O)N[C@H](C(=O)NN(Cc1c(F)cc(-c2cnccn2)cc1F)C[C@H](O)[C@H](Cc1ccc(C#Cc2ccc(N3CC4CCC(C3)N4C3COC3)nc2)cc1)NC(=O)[C@@H](NC(=O)OC)C(C)(C)C(F)(F)F)C(C)(C)C [Example 107, Methyl ((5S,8S,9S,14S)-11-(2,6-difluoro-4-(pyrazin-2-yl)benzyl)-9-hydroxy-15,15-dimethyl-8-(4-((6-(8-(oxetan-3-yl)-3,8-diazabicyclo[3.2.1]octan-3-yl)pyridin-3-yl)ethynyl)benzyl)-3,6,13-trioxo-5-(1,1,1-trifluoro-2-methylpropan-2-yl)-2-oxa-4,7,11,12-tetraazahexadecan-14-yl)carbamate] | 2.23 | 1.1 | – | – | – | –
COC(=O)N[C@H](C(=O)N[C@@H](Cc1ccc(C#Cc2ccc(N3CCN(C4CCOC4)CC3)nc2)cc1)[C@@H](O)CN(Cc1c(F)cc(-c2cnn(C(F)F)c2)cc1F)NC(=O)[C@@H](NC(=O)OC)C(C)(C)C(F)(F)F)C(C)(C)C(F)(F)F (stereo partly drawn) [Example 114, Methyl ((5S,8S,9S,14S)-11-(4-(1-(difluoromethyl)-1H-pyrazol-4-yl)-2,6-difluorobenzyl)-16,16,16-trifluoro-9-hydroxy-15,15-dimethyl-3,6,13-trioxo-8-(4-((6-(4-(tetrahydrofuran-3-yl)piperazin-1-yl)pyridin-3-yl)ethynyl)benzyl)-5-(1,1,1-trifluoro-2-methylpropan-2-yl)-2-oxa-4,7,11,12-tetraazahexadecan-14-yl)carbamate] | 5.1 | – | – | <0.11 | 0.28 | –
COC(=O)N[C@H](C(=O)N[C@@H](Cc1ccc(C#Cc2ccc(N3CCN(C4CCOCC4)CC3)nc2)cc1)[C@@H](O)CN(Cc1c(F)cc(-c2cnn(C(F)F)c2)cc1F)NC(=O)[C@@H](NC(=O)OC)C(C)(C)C(F)(F)F)C(C)(C)C(F)(F)F [Example 115, Methyl ((5S,8S,9S,14S)-11-(4-(1-(difluoromethyl)-1H-pyrazol-4-yl)-2,6-difluorobenzyl)-16,16,16-trifluoro-9-hydroxy-15,15-dimethyl-3,6,13-trioxo-8-(4-((6-(4-(tetrahydro-2H-pyran-4-yl)piperazin-1-yl)pyridin-3-yl)ethynyl)benzyl)-5-(1,1,1-trifluoro-2-methylpropan-2-yl)-2-oxa-4,7,11,12-tetraazahexadecan-14-yl)carbamate] | 3.19 | – | – | 0.12 | <0.18 | –
COC(=O)N[C@H](C(=O)N[C@@H](Cc1ccc(C#Cc2cnc(N3CC4CCC(C3)N4C3COC3)nc2)cc1)[C@@H](O)CN(Cc1c(F)cc(-c2cnc(C)nc2)cc1F)NC(=O)[C@@H](NC(=O)OC)C(C)(C)C(F)(F)F)C(C)(C)C(F)(F)F [Example 119, Methyl ((5S,8S,9S,14S)-11-(2,6-difluoro-4-(2-methylpyrimidin-5-yl)benzyl)-16,16,16-trifluoro-9-hydroxy-15,15-dimethyl-8-(4-((2-(8-(oxetan-3-yl)-3,8-diazabicyclo[3.2.1]octan-3-yl)pyrimidin-5-yl)ethynyl)benzyl)-3,6,13-trioxo-5-(1,1,1-trifluoro-2-methylpropan-2-yl)-2-oxa-4,7,11,12-tetraazahexadecan-14-yl)carbamate] | 3.66 | <0.11 | 0.27 | – | – | 1.35
COC(=O)N[C@H](C(=O)N[C@@H](Cc1ccc(C#Cc2cnc(N3CC4CCC(C3)N4C3COC3)nc2)cc1)[C@@H](O)CN(Cc1c(F)cc(-c2cnc(N3CC4CCC(C3)N4C3COC3)nc2)cc1F)NC(=O)[C@@H](NC(=O)OC)C(C)(C)C(F)(F)F)C(C)(C)C(F)(F)F [Example 120, Methyl ((5S,8S,9S,14S)-11-(2,6-difluoro-4-(2-(8-(oxetan-3-yl)-3,8-diazabicyclo[3.2.1]octan-3-yl)pyrimidin-5-yl)benzyl)-16,16,16-trifluoro-9-hydroxy-15,15-dimethyl-8-(4-((2-(8-(oxetan-3-yl)-3,8-diazabicyclo[3.2.1]octan-3-yl)pyrimidin-5-yl)ethynyl)benzyl)-3,6,13-trioxo-5-(1,1,1-trifluoro-2-methylpropan-2-yl)-2-oxa-4,7,11,12-tetraazahexadecan-14-yl)carbamate] | 5.36 | 0.14 | 0.53 | – | – | –
COC(=O)N[C@H](C(=O)N[C@@H](Cc1ccc(C#Cc2cnc(N3CC4CCC(C3)N4C3COC3)nc2)cc1)[C@@H](O)CN(Cc1c(F)cc(-c2ccn(C(F)F)n2)cc1F)NC(=O)[C@@H](NC(=O)OC)C(C)(C)C)C(C)(C)C [Example 121, Methyl ((5S,8S,9S,14S)-5-(tert-butyl)-11-(4-(1-(difluoromethyl)-1H-pyrazol-3-yl)-2,6-difluorobenzyl)-9-hydroxy-15,15-dimethyl-8-(4-((2-(8-(oxetan-3-yl)-3,8-diazabicyclo[3.2.1]octan-3-yl)pyrimidin-5-yl)ethynyl)benzyl)-3,6,13-trioxo-2-oxa-4,7,11,12-tetraazahexadecan-14-yl)carbamate] | 3.31 | <0.11 | <0.18 | – | – | –
COC(=O)N[C@H](C(=O)N[C@@H](Cc1ccc(C#Cc2cnc(N3CC4CCC(C3)N4C3COC3)nc2)cc1)[C@@H](O)CN(Cc1ccc(-c2ccn(C(F)F)n2)cc1)NC(=O)[C@@H](NC(=O)OC)C(C)(C)C(F)(F)F)C(C)(C)C(F)(F)F [Example 122, Methyl ((5S,8S,9S,14S)-11-(4-(1-(difluoromethyl)-1H-pyrazol-3-yl)benzyl)-16,16,16-trifluoro-9-hydroxy-15,15-dimethyl-8-(4-((2-(8-(oxetan-3-yl)-3,8-diazabicyclo[3.2.1]octan-3-yl)pyrimidin-5-yl)ethynyl)benzyl)-3,6,13-trioxo-5-(1,1,1-trifluoro-2-methylpropan-2-yl)-2-oxa-4,7,11,12-tetraazahexadecan-14-yl)carbamate] | 4.57 | <0.11 | – | – | – | –
